Earlier results as cited in patent publication US20030027808A1, “Farnesyl protein transferase inhibitor combinations with platinum compounds” (priority 2000, published 2003).

Test system: colon cancer (LoVo)
Settings: in combination with cisplatin; in vitro LoVo colon cancer model; reported at 90th AACR Annual Meeting, Apr. 10-14, 1999

In the case of Cn1cncc1C(N)(c1ccc(Cl)cc1)c1ccc2c(c1)c(-c1cccc(Cl)c1)cc(=O)n2C (single isomer, unassigned; (+)) [(+)-6-[amino(4-chlorophenyl)(1-methyl-1H-imidazol-5-yl)methyl]-4-(3-chlorophenyl)-1-methyl-2(1H)-quinolinone], the “anti-tumor effect of the combination” value is listed as “additive anti-tumor effect”.
